For 24 compounds, IC50 results are on record in patent publication US9890147B2 (BAYER PHARMA AKTIENGESELLSCHAFT, priority 2012, dated 2018).

One test relates to MOLM-13 cells. Briefly: Cell proliferation assay (alamarBlue), MOLM-13. It is filed as cell-based. The conditions noted are these: Homo sapiens, 96 hours incubation, inhibition of cell proliferation. On the procedure: In accordance with the invention, the capability of the substances to inhibit cell proliferation was determined Cell viability was determined using the alamarBlue® reagent (Invitrogen) in a Victor X3 Multilabel Reader (Perkin Elmer). The excitation wavelength was 530 nm and the emission wavelenth […].
The MOLM-13 cells (DSMZ, ACC 554) were sown at a concentration of 4000 cells/well in 100 μl growth medium (RPMI1640, 10% FCS) on 96-well microtitre plates.
After an overnight incubation at 37° C., the fluorescence values (CI values) were determined. The plates were then treated with various substance dilutions (1E-5 M, 3E-6 M, 1E-6M, 3E-7 M, 1E-7 M, 3E-8 M, 1E-8 M) and incubated at 37° C. for 72 (MV4-11-, LOX-IMVI cells), 96 (MOLM-13-, B16F10-, MDA-MB-431-, Caov-3 cells), 120 (MOLP-8-, KMS-12-PE cells) or 168 (LAPC-4 cells) hours. The fluorescence values (CO values) were then determined. For the data analysis, the CI values were subtracted from the CO values and the results were compared between cells treated with different dilutions of the substance or with buffer solution only. These were used to calculate the IC 50 values (substance concentration required for 50% inhibition of cell proliferation).
On the technique in general: The colour change of resazurin is a common sign of viable cells or microbes.

Another test addresses T1, BRD4 (BD1) (Homo sapiens, UniProt O60885).
T1 construct: with relatively long constructs also being possible, preferably amino acids 44-168; made in house; host or cells: E. coli
Briefly: Binding assay BRD4/acetylated peptide H4 (TR-FRET protein-protein interaction assay). The method in brief: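 His6-BRD4 BD1 (aa 67-152, E. coli), usually 10 nM, with biotinylated tetra-acetylated H4 peptide in HEPES pH 7.5 buffer; 11 compound concentrations 0.1 nM–20 μM in duplicate, 10 min preincubation, 1 h at 22 °C then ≥3 h at 4 °C. TR-FRET 665/620 ratio; IC50 by 4-parameter fit.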
A general note: TR-FRET usually uses a lanthanide donor and a delayed reading to cut background.

In the case of `CNC(=O)N1N=C(c2ccc(N3CCCCC3=O)cc2)c2cc(OC)c(OC)cc2CC1C` (racemic) [Example 35, (±)-7,8-dimethoxy-N,4-dimethyl-1-[4-(2-oxopiperidin-1-yl)phenyl]-4,5-dihydro-3H-2,3-benzodiazepine-3-carboxamide], the IC50 was 1.47 µM with MOLM-13 cells and 0.22 µM on BRD4 (BD1).
For `CNC(=O)N1N=C(c2ccc(N3CCN(Cc4ccccc4)CC3=O)cc2)c2cc(OC)c(OC)cc2CC1C` (racemic) [Example 36, (±)-1-[4-(4-benzyl-2-oxopiperazin-1-yl)phenyl]-7,8-dimethoxy-N,4-dimethyl-4,5-dihydro-3H-2,3-benzodiazepine-3-carboxamide], in that order: 1.16 µM and 0.26 µM.
For `CNC(=O)N1N=C(c2ccc(N3CCCN(C)CC3=O)cc2)c2cc(OC)c(OC)cc2CC1C` (racemic) [Example 37, (±)-7,8-dimethoxy-N,4-dimethyl-1-[4-(4-methyl-2-oxo-1,4-diazepan-1-yl)phenyl]-4,5-dihydro-3H-2,3-benzodiazepine-3-carboxamide], in that order: 1.13 µM and 0.12 µM.
For `CNC(=O)N1N=C(c2ccc(N3CCCOC3=O)cc2)c2cc(OC)c(OC)cc2CC1C` (racemic) [Example 38, (±)-7,8-dimethoxy-N,4-dimethyl-1-[4-(2-oxo-1,3-oxazinan-3-yl)phenyl]-4,5-dihydro-3H-2,3-benzodiazepine-3-carboxamide], in that order: 0.73 µM and 0.12 µM.
Turning to `CNC(=O)N1N=C(c2ccc(N3CCCC3=O)cc2)c2cc(OC)c(OC)cc2CC1C` (racemic) [Example 39, (±)-7,8-dimethoxy-N,4-dimethyl-1-[4-(2-oxopyrrolidin-1-yl)phenyl]-4,5-dihydro-3H-2,3-benzodiazepine-3-carboxamide], the IC50 in the test on MOLM-13 cells is 0.7 µM; on BRD4 (BD1) it was 0.08 µM.
Turning to `CNC(=O)N1N=C(c2ccc(N3CCOCC3=O)cc2)c2cc(OC)c(OC)cc2CC1C` (racemic) [Example 40, (±)-7,8-dimethoxy-N,4-dimethyl-1-[4-(3-oxomorpholin-4-yl)phenyl]-4,5-dihydro-3H-2,3-benzodiazepine-3-carboxamide], the IC50 with MOLM-13 cells was 1.47 µM; on BRD4 (BD1), 0.28 µM.
Turning to `CNC(=O)N1N=C(c2ccc(N3CC(C)OCC3=O)cc2)c2cc(OC)c(OC)cc2CC1C` (racemic) [Example 41, (±)-7,8-dimethoxy-N,4-dimethyl-1-[4-(2-methyl-5-oxomorpholin-4-yl)phenyl]-4,5-dihydro-3H-2,3-benzodiazepine-3-carboxamide], the IC50 came to 1.35 µM in the test on MOLM-13 cells and 0.26 µM at BRD4 (BD1).
With `CNC(=O)N1N=C(c2ccc(N3CCOC(C)C3=O)cc2)c2cc(OC)c(OC)cc2CC1C` (racemic) [Example 42, (±)-7,8-dimethoxy-N,4-dimethyl-1-[4-(2-methyl-3-oxomorpholin-4-yl)phenyl]-4,5-dihydro-3H-2,3-benzodiazepine-3-carboxamide], the IC50 with MOLM-13 cells worked out at 1.29 µM; on BRD4 (BD1) it was 0.2 µM.
For `CNC(=O)N1N=C(c2ccc(N3CCN(C)CC3=O)cc2)c2cc(OC)c(OC)cc2CC1C` (racemic) [Example 43, (±)-7,8-dimethoxy-N,4-dimethyl-1-[4-(4-methyl-2-oxopiperazin-1-yl)phenyl]-4,5-dihydro-3H-2,3-benzodiazepine-3-carboxamide], in that order: 0.84 µM and 0.3 µM.
For `CNC(=O)N1N=C(c2ccc(N3CCNCC3=O)cc2)c2cc(OC)c(OC)cc2CC1C` (racemic) [Example 44, (±)-7,8-Dimethoxy-N,4-dimethyl-1-[4-(2-oxopiperazin-1-yl)phenyl]-4,5-dihydro-3H-2,3-benzodiazepine-3-carboxamide], in that order: 0.21 µM and 0.05 µM.
On to `CNC(=O)N1N=C(c2ccc(-c3cnc(C)n3C)cc2)c2cc(OC)c(OC)cc2CC1C` (racemic) [Example 47, (±)-1-[4-(1,2-dimethyl-1H-imidazol-5-yl)phenyl]-7,8-dimethoxy-N-dimethyl-4,5-dihydro-3H-2,3-benzodiazepine-3-carboxamide], for which the half-maximal inhibitory concentration (IC50) in the test on MOLM-13 cells was 0.53 µM; at BRD4 (BD1) it was 0.11 µM.
For `CNC(=O)N1N=C(c2ccc(-c3ccc(O)nc3)cc2)c2cc(OC)c(OC)cc2CC1C` (racemic) [Example 49, (±)-1-[4-(6-hydroxypyridin-3-yl)phenyl]-7,8-dimethoxy-N,4-dimethyl-4,5-dihydro-3H-2,3-benzodiazepine-3-carboxamide], in that order: 0.42 µM and 0.04 µM.
Regarding `CNC(=O)N1N=C(c2ccc(-c3ccc(C(F)(F)F)nc3)cc2)c2cc(OC)c(OC)cc2CC1C` (racemic) [Example 50, (±)-7,8-dimethoxy-N,4-dimethyl-1-{4-[6-(trifluoromethyl)pyridin-3-yl]phenyl}-4,5-dihydro-3H-2,3-benzodiazepine-3-carboxamide], the values for the IC50 with MOLM-13 cells and at BRD4 (BD1) were 0.56 µM and 0.15 µM, respectively.
For `CNC(=O)N1N=C(c2cccc(-c3c(C)nn(C)c3C)c2)c2cc(OC)c(OC)cc2CC1C` (racemic) [Example 53, (±)-7,8-dimethoxy-N,4-dimethyl-1-[3-(1,3,5-trimethyl-1H-pyrazol-4-yl)phenyl]-4,5-dihydro-3H-2,3-benzodiazepine-3-carboxamide], in that order: 0.35 µM and 0.04 µM.
For `CNC(=O)N1N=C(c2cccc(-c3cnn(C)c3)c2)c2cc(OC)c(OC)cc2CC1C` (racemic) [Example 54, (±)-7,8-dimethoxy-N,4-dimethyl-1-[3-(1-methyl-1H-pyrazol-4-yl)phenyl]-4,5-dihydro-3H-2,3-benzodiazepine-3-carboxamide], in that order: 0.44 µM and 0.05 µM.
Turning to `CNC(=O)N1N=C(c2cccc(-c3ccnn3C)c2)c2cc(OC)c(OC)cc2CC1C` (racemic) [Example 55, (±)-7,8-dimethoxy-N,4-dimethyl-1-[3-(1-methyl-1H-pyrazol-5-yl)phenyl]-4,5-dihydro-3H-2,3-benzodiazepine-3-carboxamide], the IC50 with MOLM-13 cells was found to be 0.9 µM; at BRD4 (BD1) it was 0.12 µM.
`CNC(=O)N1N=C(c2ccc(F)c(-c3c(C)nn(C)c3C)c2)c2cc(OC)c(OC)cc2CC1C` (racemic) [Example 56, (±)-1-[4-fluoro-3-(1,3,5-trimethyl-1H-pyrazol-4-yl)phenyl]-7,8-dimethoxy-N,4-dimethyl-4,5-dihydro-3H-2,3-benzodiazepine-3-carboxamide]: the IC50 turned out to be 0.9 µM with MOLM-13 cells and 0.18 µM on BRD4 (BD1).
For `CNC(=O)N1N=C(c2ccc(F)c(-c3cnn(C)c3)c2)c2cc(OC)c(OC)cc2CC1C` (racemic) [Example 57, (±)-1-[4-fluoro-3-(1-methyl-1H-pyrazol-4-yl)phenyl]-7,8-dimethoxy-N,4-dimethyl-4,5-dihydro-3H-2,3-benzodiazepine-3-carboxamide], in that order: 0.79 µM and 0.09 µM.
For `CNC(=O)N1N=C(c2ccc(F)c(-c3c(C)noc3C)c2)c2cc(OC)c(OC)cc2CC1C` (racemic) [Example 58, (±)-1-[3-(3,5-dimethylisoxazol-4-yl)-4-fluoroophenyl]-7,8-dimethoxy-N,4-dimethyl-4,5-dihydro-3H-2,3-benzodiazepine-3-carboxamide], in that order: 0.99 µM and 0.25 µM.
`CNC(=O)N1N=C(c2ccc(-c3cccc([N+](=O)[O-])c3)cc2)c2cc(OC)c(OC)cc2CC1C` (racemic) [Example 59, (±)-7,8-dimethoxy-N,4-dimethyl-1-(3′-nitrobiphenyl-4-yl)-4,5-dihydro-3H-2,3-benzodiazepine-3-carboxamide]: the IC50 is 0.62 µM with MOLM-13 cells and 0.07 µM at BRD4 (BD1).
Regarding `CNC(=O)N1N=C(c2ccc(-c3ccccc3)cc2)c2cc(OC)c(OC)cc2CC1C` (racemic) [Example 60, (±)-1-(biphenyl-4-yl)-7,8-dimethoxy-N,4-dimethyl-4,5-dihydro-3H-2,3-benzodiazepine-3-carboxamide], the IC50 in the test on MOLM-13 cells turned out to be 0.48 µM; at BRD4 (BD1), 0.08 µM.
For `CNC(=O)N1N=C(c2ccc(-c3ccc(Cl)cc3Cl)cc2)c2cc(OC)c(OC)cc2CC1C` (racemic) [Example 61, (±)-1-(2′,4′-dichlorobiphenyl-4-yl)-7,8-dimethoxy-N,4-dimethyl-4,5-dihydro-3H-2,3-benzodiazepine-3-carboxamide], in that order: 2.11 µM and 0.57 µM.
For the compound `CNC(=O)N1N=C(c2ccc(-c3ccc(F)cc3)cc2)c2cc(OC)c(OC)cc2CC1C` (racemic) [Example 62, (±)-1-(4′-fluorobiphenyl-4-yl)-7,8-dimethoxy-N,4-dimethyl-4,5-dihydro-3H-2,3-benzodiazepine-3-carboxamide], the figures for the IC50 in the test with MOLM-13 cells and on BRD4 (BD1) were 0.65 µM and 0.06 µM, respectively.
In the case of `CNC(=O)N1N=C(c2ccc(-c3ccc(Cl)cc3)cc2)c2cc(OC)c(OC)cc2CC1C` (racemic) [Example 63, (±)-1-(4′-chlorobiphenyl-4-yl)-7,8-dimethoxy-N,4-dimethyl-4,5-dihydro-3H-2,3-benzodiazepine-3-carboxamide], the IC50 with MOLM-13 cells worked out at 0.77 µM; on BRD4 (BD1), 0.17 µM.

As usually defined, the IC50 is the concentration needed to halve the response being measured. Low values mean higher potency, high ones lower potency.
